Experimental data from US9670250B2, “Alpha-helical peptidomimetic inhibitors and methods using same” (The Trustees of the University of Pennsylvania, priority 2012, dated 2017).
Starred links: 1 amine or outer side, 2 acyl side, 3 side chain; linkers in the order of their positions; H or OH if unused. Positions of bridges follow the written chain, without caps; N, C: chain ends. Residues, ends and D or L forms follow the SMILES beside them. mXylylene = c1cc(C[*:1])cc(C[*:2])c1

Assays:
Cathepsin K = target: T1, Cathepsin K (Homo sapiens, UniProt P43235); experiment: in vitro fluorescence-based protease inhibition assay, cathepsin K; assay type: biochemical
T1 sequence (P43235 115-329): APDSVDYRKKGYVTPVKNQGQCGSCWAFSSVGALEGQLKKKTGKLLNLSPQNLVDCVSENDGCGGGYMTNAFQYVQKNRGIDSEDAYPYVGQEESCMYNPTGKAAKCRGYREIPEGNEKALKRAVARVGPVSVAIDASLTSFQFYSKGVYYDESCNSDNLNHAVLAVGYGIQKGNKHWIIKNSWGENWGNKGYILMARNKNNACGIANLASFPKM
Source text: (§1) Thus, the present invention includes a series of potent and highly specific α-helical inhibitors for papain family cysteine proteases. […] These short α-helical peptidomimetic inhibitors are modeled after the natural pro-domain sequence but contain a cysteine substitution at specific residues in i,i+4 positions, as shown in FIG. 2B. These cysteine residues are used for stabilization of the helix utilizing an appropriate linker (Muppidi, et al., 2011, Chem Commun (Camb) 47:9396-9398). After synthesis, each inhibitor was tested against its respective protease using an in vitro fluorescence-based assay. For each enzyme, at least one inhibitor was identified that is relatively potent and highly specific for its individual protease. These inhibitors can be modified or otherwise optimized to attain higher potency and selectivity through identification of key interactions between the inhibitor and the active site amino acid residues. Such optimization involves visual examination of the protease crystal structure, and substitution with either non-natural or natural amino acids to exploit possible crucial non-covalent protein ligand interactions, such as hydrogen bond, electrostatic, hydrophobic, and Van der Waals interactions.

Calpain (Calpain-1) = target: T2, Calpain (Calpain-1) (Homo sapiens, UniProt P07384); experiment: in vitro fluorescence-based protease inhibition assay, calpain; assay type: biochemical
T2 sequence (P07384 1-714): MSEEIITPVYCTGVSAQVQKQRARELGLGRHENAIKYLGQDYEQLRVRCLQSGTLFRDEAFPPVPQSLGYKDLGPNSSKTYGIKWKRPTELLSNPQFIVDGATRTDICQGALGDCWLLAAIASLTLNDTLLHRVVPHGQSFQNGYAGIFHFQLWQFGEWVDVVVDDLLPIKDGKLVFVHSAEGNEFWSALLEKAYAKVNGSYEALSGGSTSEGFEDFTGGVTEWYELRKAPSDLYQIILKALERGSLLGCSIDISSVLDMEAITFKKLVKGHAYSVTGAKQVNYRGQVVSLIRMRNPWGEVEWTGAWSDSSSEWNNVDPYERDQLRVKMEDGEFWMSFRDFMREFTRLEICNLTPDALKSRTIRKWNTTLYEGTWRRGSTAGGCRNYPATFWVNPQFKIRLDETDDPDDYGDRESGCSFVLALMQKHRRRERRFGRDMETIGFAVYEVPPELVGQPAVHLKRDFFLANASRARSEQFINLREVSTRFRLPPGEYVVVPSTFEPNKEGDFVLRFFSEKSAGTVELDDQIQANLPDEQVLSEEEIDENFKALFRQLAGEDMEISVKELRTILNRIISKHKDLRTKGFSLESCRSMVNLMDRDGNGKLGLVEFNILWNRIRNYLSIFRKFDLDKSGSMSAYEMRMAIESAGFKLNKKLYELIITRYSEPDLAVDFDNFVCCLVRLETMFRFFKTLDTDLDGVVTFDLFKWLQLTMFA
T2 sequence (P04632 1-268 partner): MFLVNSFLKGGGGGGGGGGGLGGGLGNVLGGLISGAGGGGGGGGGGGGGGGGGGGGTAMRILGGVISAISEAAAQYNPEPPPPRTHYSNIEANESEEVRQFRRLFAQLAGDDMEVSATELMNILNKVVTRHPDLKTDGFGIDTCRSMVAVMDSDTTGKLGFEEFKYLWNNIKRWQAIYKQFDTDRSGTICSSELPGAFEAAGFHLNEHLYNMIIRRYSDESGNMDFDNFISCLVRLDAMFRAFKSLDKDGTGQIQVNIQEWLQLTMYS
Source text: as §1

[1] = Table 2, cathepsin S inhibitors

| Molecule | Ki (Calpain (Calpain-1); [1]) [µM] | Ki (Calpain (Calpain-1); Table 4, calpain inhibitors) [µM] | other results |
| --- | --- | --- | --- |
| 35 (SCELVCKMTGL) [compound 35] |  |  | Cathepsin K activity (Cathepsin K; between 200-500 nM & 50 μM): 80% activity |
| CSCC[C@H](NC(=O)[C@H](CCCCN)NC(=O)[C@H](CCC(N)=O)NC(=O)[C@@H](NC(=O)[C@@H](NC(=O)[C@H](CCC(=O)O)NC(=O)[C@H](CCC(=O)O)NC(=O)[C@@H](N)CO)C(C)C)C(C)C)C(=O)N[C@H](C(=O)NCC(=O)N[C@@H](CC(C)C)C(=O)O)[C@@H](C)O [SEQ ID NO:32, SEEVVQKMTGL, reference compound] (H-SEEVVQKMTGL-OH) |  |  | effect on cathepsin K (inhibition or activation), in words (Cathepsin K): did not inhibit |
| CSCC[C@@H]1NC(=O)[C@H](CC(C)C)NC(=O)[C@H](CO)NC(=O)[C@@H](NC(=O)[C@@H](NC(=O)[C@H](CCC(=O)O)NC(=O)[C@H](CCC(=O)O)NC(=O)[C@H](CO)NC(=O)[C@@H](N)Cc2c[nH]c3ccccc23)C(C)C)CSCc2cccc(c2)CSC[C@@H](C(=O)N[C@@H](CO)C(=O)O)NC1=O [compound 17] (H-WSEEVCSLMCS-OH; linker 6-10 via mXylylene; N-terminus and C-terminus assumed) | 108 ± 1.28 |  | Ki (Cathepsin K; [1]): > 100 µM |
| CSCC[C@@H]1NC(=O)[C@H](CC(C)C)NC(=O)[C@H](CO)NC(=O)[C@@H](NC(=O)[C@@H](NC(=O)[C@H](Cc2c[nH]c3ccccc23)NC(=O)[C@H](CCC(=O)O)NC(=O)[C@H](Cc2c[nH]c3ccccc23)NC(=O)[C@@H](N)[C@@H](C)O)C(C)C)CSCc2cccc(c2)CSC[C@@H](C(=O)N[C@@H](CO)C(=O)O)NC1=O [compound 23] (H-TWEWVCSLMCS-OH; linker 6-10 via mXylylene; N-terminus and C-terminus assumed) | 88.4 ± 1.13 |  |  |
| CSCC[C@@H]1NC(=O)[C@H](CC(C)C)NC(=O)[C@H](CO)NC(=O)[C@@H](NC(=O)[C@@H](NC(=O)[C@H](Cc2c[nH]c3ccccc23)NC(=O)[C@H](CCC(=O)O)NC(=O)[C@H](Cc2c[nH]c3ccccc23)NC(=O)[C@@H](N)Cc2c[nH]c3ccccc23)C(C)C)CSCc2cccc(c2)CSC[C@@H](C(=O)N[C@@H](CO)C(=O)O)NC1=O [compound 25] (H-WWEWVCSLMCS-OH; linker 6-10 via mXylylene; N-terminus and C-terminus assumed) | 85.5 ± 1.3 |  |  |

More lines, main results first:

| Ki (Calpain (Calpain-1); [1]) [µM] | Ki (Calpain (Calpain-1); Table 4, calpain inhibitors) [µM] | Molecule | other results |
| --- | --- | --- | --- |
|  | 10.2 ± 2.9 | CC[C@H](C)[C@H](N)C(=O)N1CCC[C@H]1C(=O)N1CCC[C@H]1C(=O)N[C@@H](CCCCN)C(=O)N[C@@H](Cc1ccc(O)cc1)C(=O)N[C@H]1CSCc2cccc(c2)CSC[C@@H](C(=O)O)NC(=O)[C@H](CC(C)C)NC(=O)[C@H](CC(C)C)NC(=O)[C@H](CCC(=O)O)NC1=O [compound 65] | Ki (Cathepsin K; Table 4, calpain inhibitors): > 100 µM |
|  | 35 ± 10.4 | CC(C)C[C@@H]1NC(=O)[C@H](CC(C)C)NC(=O)[C@H](CCC(=O)O)NC(=O)[C@@H](NC(=O)[C@H](Cc2ccc(O)cc2)NC(=O)[C@H](CCCCN)NC(=O)[C@@H]2CCCN2C(=O)[C@@H]2CCCN2C(=O)[C@@H](N)CCC(N)=O)CSCc2cccc(c2)CSC[C@@H](C(=O)O)NC1=O [compound 76] (H-QPPKYCELLC-OH; linker 6-10 via mXylylene; N-terminus and C-terminus assumed) |  |
|  | > 100 | CC[C@H](C)[C@H](N)C(=O)N1CCC[C@H]1C(=O)N1CCC[C@H]1C(=O)N[C@@H](CCCCN)C(=O)N[C@@H](C)C(=O)N[C@H]1CSCc2cccc(c2)CSC[C@@H](C(=O)O)NC(=O)[C@H](CC(C)C)NC(=O)[C@H](CC(C)C)NC(=O)[C@H](CCC(=O)O)NC1=O [compound 81] (H-IPPKACELLC-OH; linker 6-10 via mXylylene; N-terminus and C-terminus assumed) |  |
|  | 30.9 ± 9.2 | CC[C@H](C)[C@H](N)C(=O)N1CCC[C@H]1C(=O)N1CCC[C@H]1C(=O)N[C@@H](CCCCN)C(=O)N[C@@H](Cc1ccc(O)cc1)C(=O)N[C@H]1CSCc2cccc(c2)CSC[C@@H](C(=O)O)NC(=O)[C@H](CC(C)C)NC(=O)[C@H](C)NC(=O)[C@H](CCC(=O)O)NC1=O [compound 86] (H-IPPKYCEALC-OH; linker 6-10 via mXylylene; N-terminus and C-terminus assumed) |  |
